The target of one data set is T1, cyclin D1/cdk 4 enzyme (Homo sapiens, UniProt P11802).
T1 construct: made in house; host or cells: Sf9 insect cells, recombinant baculovirus
Put plainly: CDK4 ELISA kinase assay (phospho-Rb ser 795 detection). The conditions noted are these: In Vitro Enzyme Assays, 200 μM ATP, read-out: CDK4 IC50. In kind it is biochemical. The method, boiled down: (§1)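 Wells were coated overnight with GST-Rb C-terminal fragment, then blocked. Compound (10 ug/ml final) and cyclin/CDK enzyme from baculovirus-infected Sf9 cells with 200 μM ATP reacted 1 h at 30° C. Ser795 phosphorylation was detected by ELISA at 450 nm.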
A general note: An ELISA detects its analyte on a solid surface through an enzyme-linked reagent.

Another data set has as its target T2, cyclin B/CDK1 enzyme (Homo sapiens, UniProt P06493).
T2 construct: purchased New England BioLabs; host or cells: Sf9 insect cells, recombinant baculovirus
Nature of the data set: CDK1 ELISA kinase assay (phospho-Rb ser 795 detection). In kind it is biochemical. To be noted: In Vitro Enzyme Assays, read-out: CDK1 IC50. The method in brief:
as §1

In the next data set the test system is HCT-116. Put plainly: Cytotoxicity assay (SRB), HCT-116. To be noted: Homo sapiens, HCT-116, 72 h, HCT116 cells, SRB, three days; read-out: In Vitro Cellular Activity IC50 HCT116. The format is cell-based. The method, boiled down:
(§2)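 Overnight-seeded monolayers (4000–12000 cells/well by line) receive compound in 5% FBS medium at 37 °C, 7% CO2. After 3 d, or 6 d for BT474, cellular protein is fixed with cold TCA, stained with SRB and read at 540 nm against untreated wells.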

A further data set relates to LoVo. Put plainly: Cytotoxicity assay (SRB), LoVo. The format is cell-based. To be noted: Homo sapiens, LoVo, 72 h, LoVo cells, SRB, three days; read-out: In Vitro Cellular Activity IC50 LOVO. The method in brief:
as §2

The test system of the next data set is MCF-7. Nature of the data set: Cytotoxicity assay (SRB), MCF-7. In kind it is cell-based. The conditions noted are these: Homo sapiens, MCF7, 72 h, MCF-7 cells, SRB, three days; read-out: In Vitro Cellular Activity IC50 MCF-7. The method in brief: as §2
The next data set relates to BT474. Nature of the data set: Cytotoxicity assay (SRB), BT474. In kind it is cell-based. To be noted: Homo sapiens, BT-474, 144 h, BT474 cells, SRB, 6 days; read-out: In Vitro Cellular Activity IC50 BT474. The method in brief: as §2

T2 sequence (P06493 whole entry): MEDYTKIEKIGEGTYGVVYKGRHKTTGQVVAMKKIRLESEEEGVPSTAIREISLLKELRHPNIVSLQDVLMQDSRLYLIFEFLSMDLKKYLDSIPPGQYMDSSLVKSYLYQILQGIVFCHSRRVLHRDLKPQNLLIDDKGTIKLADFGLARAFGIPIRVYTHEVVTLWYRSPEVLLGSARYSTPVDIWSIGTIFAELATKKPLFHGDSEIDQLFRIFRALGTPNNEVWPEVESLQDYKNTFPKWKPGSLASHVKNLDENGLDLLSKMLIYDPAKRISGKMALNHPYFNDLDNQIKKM
T2 sequence (P14635 whole entry partner): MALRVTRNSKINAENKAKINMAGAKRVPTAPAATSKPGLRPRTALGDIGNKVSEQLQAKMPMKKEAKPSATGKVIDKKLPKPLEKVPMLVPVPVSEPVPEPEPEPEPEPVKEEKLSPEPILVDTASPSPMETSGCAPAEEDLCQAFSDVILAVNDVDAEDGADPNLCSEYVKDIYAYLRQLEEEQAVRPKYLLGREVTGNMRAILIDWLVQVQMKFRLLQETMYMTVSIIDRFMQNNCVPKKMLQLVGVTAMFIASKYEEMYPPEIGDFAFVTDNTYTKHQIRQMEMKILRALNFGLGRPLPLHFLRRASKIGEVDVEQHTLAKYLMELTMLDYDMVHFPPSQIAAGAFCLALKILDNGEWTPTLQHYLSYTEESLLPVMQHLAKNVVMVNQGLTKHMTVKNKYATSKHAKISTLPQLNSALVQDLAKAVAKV
T1 sequence (P11802 whole entry, species assumed): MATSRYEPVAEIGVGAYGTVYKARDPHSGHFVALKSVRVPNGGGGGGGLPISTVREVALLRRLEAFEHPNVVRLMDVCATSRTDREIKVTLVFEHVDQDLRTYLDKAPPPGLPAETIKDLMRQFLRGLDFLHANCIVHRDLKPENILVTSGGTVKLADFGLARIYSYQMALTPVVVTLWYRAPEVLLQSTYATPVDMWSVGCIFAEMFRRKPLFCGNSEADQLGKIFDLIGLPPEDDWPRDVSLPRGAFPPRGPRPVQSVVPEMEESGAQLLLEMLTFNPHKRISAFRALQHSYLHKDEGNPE
T1 sequence (P24385 whole entry partner, species assumed): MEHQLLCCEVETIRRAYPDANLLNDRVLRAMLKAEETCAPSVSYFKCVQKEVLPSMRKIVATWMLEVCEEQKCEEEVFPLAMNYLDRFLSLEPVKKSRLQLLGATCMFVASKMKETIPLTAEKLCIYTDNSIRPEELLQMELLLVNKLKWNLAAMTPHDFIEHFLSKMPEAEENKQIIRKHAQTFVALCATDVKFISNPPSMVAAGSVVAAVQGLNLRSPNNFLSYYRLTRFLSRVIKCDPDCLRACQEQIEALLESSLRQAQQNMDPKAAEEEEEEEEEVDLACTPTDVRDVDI

As for `CC(=O)Oc1ccc(CN/C=C2\C(=O)NC(=O)c3ccccc32)cc1OC(C)=O` [Example 47, 2-(Acetyloxy)-4-({[(Z)-(1,3-dioxo-2,3-dihydroisoquinolin-4(1H)-ylidene)methyl]amino}-methyl)phenyl acetate], the melting point (commonly the temperature of the solid-liquid transition) is 184 to 186 °C. Besides, the IC50 (commonly the point on the concentration scale where inhibition reaches its midpoint) on cyclin D1/cdk 4 enzyme was 1.1 µM. For the same compound, at cyclin B/CDK1 enzyme, the IC50 is over 50 µM. The IC50 in the data set on HCT-116 came to 21 µM. Further, the IC50 in the data set with LoVo is 22 µM. The half-inhibitory concentration (IC50) in the data set on MCF-7 is 20 µM.
On to `O=C1NC(=O)c2ccccc2/C1=C/NCc1ccc(O)cc1` [Example 61], for which the melting point was 272 to 273 °C. Also, at cyclin D1/cdk 4 enzyme, the IC50 was over 50 µM. Besides, on cyclin B/CDK1 enzyme, the IC50 is 37.2 µM. Further, the IC50 in the data set on BT474 was over 50 µM. Besides, the IC50 in the data set with HCT-116 was 27.6 µM. The half-inhibitory concentration (IC50) in the data set with LoVo is over 50 µM. Also, the half-inhibitory concentration (IC50) in the data set on MCF-7 is over 50 µM.
Take `O=C1NC(=O)c2ccccc2/C1=C/NCc1cccc(O)c1` [Example 63]: the melting point was in the range of 261 to 262 °C. Further, the IC50 at cyclin D1/cdk 4 enzyme stood at 0.78 µM. Moreover, on cyclin B/CDK1 enzyme, the IC50 is over 50 µM. For the same compound, the IC50 in the data set on BT474 turned out to be 49 µM. For the same compound, the IC50 in the data set on HCT-116 is over 50 µM. Moreover, the IC50 in the data set on LoVo is over 50 µM. The IC50 with MCF-7 was over 50 µM.
For `CN(C)C(=O)c1ccc2c(c1)/C(=C/Nc1ccc(CN3CCCCC3)cc1)C(=O)NC2=O` [Example 66, (4Z)-N,N-Dimethyl-1,3-dioxo-4-({[4-(piperidinylmethyl)phenyl]amino}methylene)-1,2,3,4-tetrahydroisoquinoline-6-carboxamide], the melting point is 266 to 267 °C (dec.). The IC50 at cyclin D1/cdk 4 enzyme is 21.2 µM. In addition, the IC50 on cyclin B/CDK1 enzyme was over 50 µM. The IC50 in the data set with BT474 stood at 3.1 µM. For the same compound, the IC50 with HCT-116 was determined as 3.4 µM. The IC50 in the data set with LoVo was 4.2 µM. Also, in the data set on MCF-7, the half-inhibitory concentration (IC50) was found to be 4.3 µM.
With `COc1ccc(CN/C=C2\C(=O)NC(=O)c3ccc(F)cc32)cc1O` [Example 68], the melting point is 200 to 201 °C. Besides, on cyclin D1/cdk 4 enzyme, the IC50 was 0.17 µM. Moreover, the IC50 at cyclin B/CDK1 enzyme was over 50 µM. Besides, the IC50 in the data set on BT474 was found to be 14 µM. The 50% inhibitory concentration (IC50) in the data set with HCT-116 turned out to be 15 µM. For the same compound, the concentration for half-maximal inhibition (IC50) with LoVo turned out to be 19 µM. Further, the IC50 in the data set with MCF-7 is over 50 µM.
In the case of `COc1ccc2c(c1)C(=CNc1ccc(CN3CCCCC3)cc1)C(=O)NC2=O` [Example 91, 6-Methoxy-4-[(4-piperidin-1-ylmethyl-phenylamino)-methylene]-4H-isoquinoline-1,3-dione], the melting point was 272 to 275 °C (dec.). Besides, the IC50 on cyclin D1/cdk 4 enzyme turned out to be 2 µM. Moreover, at cyclin B/CDK1 enzyme, the IC50 is over 50 µM. In the data set with BT474, the IC50 amounted to 40 µM. The IC50 in the data set on HCT-116 came out at 27 µM. For the same compound, in the data set on LoVo, the IC50 was found to be 37 µM. Also, in the data set on MCF-7, the IC50 was 16 µM.
Turning to `COc1ccc(CN/C=C2\C(=O)NC(=O)c3ccc(-c4ccoc4)cc32)cc1O` [Example 92], the melting point lay within 254 to 255 °C. The IC50 on cyclin D1/cdk 4 enzyme was under 0.005 µM. The IC50 on cyclin B/CDK1 enzyme worked out at 2.5 µM. In addition, the IC50 in the data set on BT474 turned out to be 2 µM. In the data set on HCT-116, the IC50 was determined as 2.5 µM. Besides, the IC50 with LoVo was found to be 3.2 µM. Further, the IC50 with MCF-7 worked out at 3.8 µM.
`O=C1NC(=O)c2ccc(-c3ccoc3)cc2/C1=C/Nc1ccc(CN2CCCCC2)cc1` [Example 93] gave a melting point of 204 to 205 °C. For the same compound, at cyclin D1/cdk 4 enzyme, the IC50 is 0.037 µM. Besides, the concentration for half-maximal inhibition (IC50) on cyclin B/CDK1 enzyme was over 50 µM. Also, in the data set with BT474, the 50% inhibitory concentration (IC50) came out at 1 µM. In addition, in the data set on LoVo, the IC50 worked out at 1.8 µM.
For `O=C1NC(=O)c2ccc(-c3cccc(O)c3)cc2/C1=C/Nc1ccc(CN2CCCCC2)cc1` [Example 96], the melting point lay within 235 to 236 °C. In addition, the IC50 at cyclin D1/cdk 4 enzyme stood at 0.027 µM. Also, at cyclin B/CDK1 enzyme, the IC50 is over 50 µM. Moreover, in the data set with BT474, the IC50 was found to be 3.4 µM. For the same compound, the IC50 with HCT-116 was determined as 1.3 µM. Moreover, in the data set with LoVo, the concentration for half-maximal inhibition (IC50) is 1.8 µM. In addition, the half-maximal inhibitory concentration (IC50) with MCF-7 worked out at 2 µM.
Regarding `O=C1NC(=O)c2ccc(-c3cccnc3)cc2/C1=C/Nc1ccc(CN2CCCCC2)cc1` [Example 102], the melting point was in the range of 247 to 248 °C. On cyclin D1/cdk 4 enzyme, the IC50 came out at 0.13 µM. In addition, the IC50 on cyclin B/CDK1 enzyme was over 50 µM. Also, in the data set with BT474, the IC50 is over 50 µM. In addition, the IC50 with HCT-116 was determined as 11.5 µM. Besides, the IC50 with LoVo is 43.3 µM. Moreover, the IC50 in the data set with MCF-7 was over 50 µM.
On to `O=C1NC(=O)c2ccc(-c3ccc(O)cc3)cc2/C1=C/Nc1ccc(CN2CCCCC2)cc1` [Example 103], for which the melting point lay within 244 to 245 °C. Further, the half-maximal inhibitory concentration (IC50) at cyclin D1/cdk 4 enzyme was determined as 0.041 µM. Moreover, the IC50 at cyclin B/CDK1 enzyme was over 50 µM. In the data set with BT474, the 50% inhibitory concentration (IC50) amounted to 3.7 µM. For the same compound, the IC50 in the data set on LoVo worked out at 2.3 µM.
Compound `O=C1NC(=O)c2ccc(N3CCOCC3)cc2/C1=C/Nc1ccc(CN2CCCCC2)cc1` [Example 120, (4Z)-6-Morpholin-4-yl-4-({[4-(piperidin-1-ylmethyl)phenyl]amino}methylene)isoquinoline-1,3(2H,4H)-dione] had a melting point of 216 to 217 °C. The IC50 on cyclin D1/cdk 4 enzyme turned out to be 0.92 µM. Moreover, the IC50 at cyclin B/CDK1 enzyme is over 50 µM. Moreover, the IC50 in the data set on BT474 came out at 8 µM. Moreover, in the data set with HCT-116, the IC50 turned out to be 4.3 µM. For the same compound, in the data set on LoVo, the IC50 came out at 7.7 µM. For the same compound, the 50% inhibitory concentration (IC50) in the data set on MCF-7 was found to be 21 µM.
Consider `CN1CCN(c2ccc3c(c2)/C(=C/Nc2ccc(CN4CCCCC4)cc2)C(=O)NC3=O)CC1` [Example 123], for which the melting point lay in the range of 192 to 193 °C. The IC50 on cyclin D1/cdk 4 enzyme stood at 34.7 µM. For the same compound, the IC50 at cyclin B/CDK1 enzyme was over 50 µM. Further, in the data set with BT474, the IC50 worked out at 9.4 µM. The IC50 in the data set on HCT-116 came out at 3.4 µM. For the same compound, in the data set with LoVo, the IC50 amounted to 4.4 µM. For the same compound, the IC50 with MCF-7 came to 7.2 µM.
As for `CC(=O)Nc1ccc(CN/C=C2\C(=O)NC(=O)c3ccc(Br)cc32)cc1O` [Example 142, N-[4-({[(Z)-(6-Bromo-1,3-dioxo-2,3-dihydroisoquinolin-4(1H)-′ylidene)methyl]amino}methyl)-2-hydroxyphenyl]acetamide], the melting point is 252 to 253 °C. Further, the IC50 on cyclin D1/cdk 4 enzyme turned out to be 0.02 µM. For the same compound, the IC50 on cyclin B/CDK1 enzyme was over 50 µM. In addition, the IC50 in the data set with BT474 amounted to 0.66 µM. Moreover, in the data set with HCT-116, the IC50 came out at 1.2 µM. The 50% inhibitory concentration (IC50) with LoVo came out at 2 µM. The 50% inhibitory concentration (IC50) in the data set on MCF-7 turned out to be 31.1 µM.
Compound `CC1CN(c2ccc(N/C=C3\C(=O)NC(=O)c4ccc([N+](=O)[O-])cc43)cc2)CC(C)N1` (centres unmarked) [Example 235, (4Z)-4-({[4-(3,5-Dimethylpiperazin-1-yl)phenyl]amino}methylene)-6-nitroisoquinoline-1,3(2H,4H)-dione] had a melting point of over 300 °C. The IC50 at cyclin D1/cdk 4 enzyme turned out to be 17.3 µM. For the same compound, the IC50 at cyclin B/CDK1 enzyme stood at 25.3 µM. The IC50 in the data set with BT474 stood at 3 µM. Also, the concentration for half-maximal inhibition (IC50) in the data set with HCT-116 was determined as 1.4 µM. In the data set on LoVo, the IC50 was found to be 3.5 µM. Further, the IC50 with MCF-7 is 3.3 µM.
Compound `CN1CCN(c2ccc(N/C=C3\C(=O)NC(=O)c4ccc(-c5ccoc5)cc43)cn2)CC1` [Example 249, (4Z)-6-(3-Furyl)-4-({[6-(4-methylpiperazin-1-yl)pyridin-3-′yl]amino}methylene)isoquinoline-1,3(2H,4H)-dione] had a melting point of 200 to 201 °C. Besides, the IC50 at cyclin B/CDK1 enzyme is over 50 µM. The IC50 in the data set on BT474 worked out at 2 µM. Further, the IC50 in the data set on LoVo is 2.4 µM.

Source of the values: US7713994B2 (Wyeth LLC, priority 2005, dated 2010).
